Measured values as given in US20050043381A1, “Aminopyrazole compounds” (AGOURON PHARMACEUTICALS, INC., priority 2003, published 2005).

What was measured:
[1] = target: T1, full-length human CHK1 (FL-CHK1) (Homo sapiens, UniProt O14757); experiment: FL-CHK1 assay (coupled spectrophotometric, Syntide-2); type: biochemical; details: FL-CHK1, 0.15 mM ATP
T1 construct: C-terminally His-tagged full-length human CHK1 (FL-CHK1); 6xHis (C); made in house
T1 sequence (O14757 1-476): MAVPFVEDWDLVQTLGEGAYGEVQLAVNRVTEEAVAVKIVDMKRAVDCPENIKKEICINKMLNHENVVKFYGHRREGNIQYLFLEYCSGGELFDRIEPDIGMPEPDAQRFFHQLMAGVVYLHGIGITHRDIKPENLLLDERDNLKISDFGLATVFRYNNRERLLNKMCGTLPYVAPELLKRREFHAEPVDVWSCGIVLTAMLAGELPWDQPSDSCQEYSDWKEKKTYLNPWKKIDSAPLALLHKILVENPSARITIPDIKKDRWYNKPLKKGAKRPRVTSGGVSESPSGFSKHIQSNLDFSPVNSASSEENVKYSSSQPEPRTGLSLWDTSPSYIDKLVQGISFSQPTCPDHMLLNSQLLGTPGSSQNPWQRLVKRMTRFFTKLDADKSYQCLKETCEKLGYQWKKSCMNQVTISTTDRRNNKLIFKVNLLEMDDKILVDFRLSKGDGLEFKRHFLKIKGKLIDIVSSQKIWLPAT
From the text: C-terminally His-tagged full-length human CHK1 (FL-CHK1) was expressed using the baculovirus/insect cell system. It contains 6 histidine residues (6 x His-tag) at the C-terminus of the 476 amino acid human CHK1. The protein was purified by conventional chromatographic techniques.
The production of ADP from ATP that accompanies phosphoryl transfer to the synthetic substrate peptide Syntide-2 (PLARTLSVAGLPGKK) was coupled to oxidation of NADH using phosphoenolpyruvate (PEP) through the actions of pyruvate kinase (PK) and lactic dehydrogenase (LDH). The oxidation of NADH was monitored by following the decrease of absorbance at 340 nm (ε340=6.22 cm^−1 mM^−1) using a HP8452 spectrophotometer. Typical reaction solutions contained: […] PEP; 0.15 mM NADH; 28 units of LDH/mL; 16 units of PK/mL; 3 mM DTT; 0.125 mM Syntide-2; 0.15 mM ATP; 25 mM MgCl2 in 50 mM TRIS, pH 7.5; and 400 mM NaCl. Assays were initiated with 10 nM of FL-CHK1. Ki values were determined by measuring initial enzyme activity in the presence of varying concentrations of test compounds. The data were analyzed using Enzyme Kinetic and Kaleidagraph software. […]

CA-46 (lymphoma) cells = experiment: Whole cell checkpoint abrogation assay (CHK1 Mitotic Index ELISA); type: cell-based; details: for EC50: concentration causing 50% abrogation of the checkpoint, camptothecin + Nocodazole
Procedure: To examine the in vitro effects of CHK1 inhibitory compounds, an ELISA assay can be designed to monitor the abrogation of DNA damage-induced checkpoint control. The assay can be based on the trapping and detection of mitotic cells following DNA damage-induced arrest.
CA-46 (lymphoma) cells can be treated with a DNA damaging agent, such as camptothecin (Sigma), at 50 nM for 8 hours to induce DNA damage. The control compound or CHK1 inhibitor can be then added at increasing concentrations with Nocodazole (Sigma) at 0.1 μg/ml and plates can be incubated for 16 hours. Control cells, where only CHK1 inhibitors can be added, can be prepared as well to assure that the inhibitors alone have no effect on the cell cycle. The cells can be then harvested, washed with PBS, and crude acid extraction can be performed. Pellets can be resuspended in 80 μl of Acid Extraction Buffer (10 mM Hepes pH 7.9, 1.5 mM MgCl2, 10 mM KCl, 0.5 mM DTT, 1.5 mM PMSF, 0.4N sulfuric acid), vortexed briefly, and incubated for 30 minutes on ice. Samples can be then centrifuged and 75 μl of the supernatant can be transferred to a 96 well flat-bottom plate (VWR 3596). Next 15 μl Neutralizing Cocktail (# of samples×(10 μl 10N NaOH+5 μl 1M Tris Base) can be added to each well, and after mixing, 5 μl of this can be transferred to another 96 well plate with 100 μl 50 mM Tris base (pH 9.6) in each well. Samples can be dried overnight. The wells can be then washed with 200 μl ELISA wash buffer (PBS with 20 mM Tris pH 7.5, 0.05% Tween 20) 5 times and blocked with 200 μl blocking buffer (PBS with 20 mM Tris pH 7.5, 0.05% Tween 20, 3.5% Dry milk, 1.5% BSA. pH to 7.5 after preparation) for 1 hour at room temperature. Following wash and block, anti-phospho Histone H3 antibodies (Upstate USA, Inc., rabbit polyclonal) can be added at 0.5 μg/ml in block (100 μl per well) and incubated for 2 hours at room temperature. Wells can be washed again to remove unbound primary antibody and 100 μl alkaline phosphatase conjugated secondary antibodies at 0.3 mg/ml (Pierce, goat anti-rabbit IgG ([…]+L)) in block can be added for 1 hour at room temp. Wells can be washed 5 times to remove unbound secondary antibody, and washed again 3 times with PBS alone to remove detergents. Then 100 μl alkaline phosphatase substrate (Pierce 1-Step pNPP) can be added to wells. Plates can be protected from light and incubated at room temp for 1 hour. The OD can be read on Molecular Devices Vmax Kinetic Microplate Reader at 405 nm. The ratio of the OD (optical density) of a compound treated sample to the Nocodazole only treated sample (about 100% mitotic or abrogation) can be expressed in a percentage, and quantifies the percent abrogation of the checkpoint. The concentration at which a compound causes 50% abrogation of the checkpoint can be called the EC50. The raw OD values can be graphed in Excel, and an EC50 value can be generated using Kaleidograph software. Strong signal results from Nocodazole only treated cells, and equals 100% mitosis in this assay. Camptothecin+Nocodazole treated control samples have low signal, signifying no mitosis and therefore, no checkpoint abrogation. When potent CHK1 inhibitors are added to Camptothecin treated cells with Nocodazole, a high signal can be generated (generally in a dose dependent manner), due to the checkpoint abrogation activity caused by the combination treatment.

| SMILES | Ki [1] [nM] | EC50 (CA-46 (lymphoma) cells) [nM] | percent abrogation of the checkpoint (CA-46 (lymphoma) cells; @ 0.5 μM) [% @ 0.5 μM] | further results |
| --- | --- | --- | --- | --- |
| Oc1cc(O)c(-c2ccc(-c3cc(Nc4ccc(CNC5CC5)cc4)n[nH]3)cc2)c(F)c1 [Example 9, 4′-[5-({4-[(cyclopropylamino)methyl]phenyl}amino)-1H-pyrazol-3-yl]-6-fluoro-1,1′-biphenyl-2,4-diol] | 1 to 10 | 88 | – | – |
| N#Cc1cccc(Nc2cc(-c3ccc(-c4ccc(O)cc4O)cc3)n[nH]2)c1 [Example 1, 3-{[3-(2′,4′-Dihydroxy-1,1′-biphenyl-4-yl)-1H-pyrazol-5-yl]amino}benzonitrile] | 1 to 10 | – | 7 | – |
| Oc1ccc(-c2ccc(-c3cc(Nc4ccc(CNCC5CC5)cc4)n[nH]3)cc2)c(O)c1 [Example 10, 4′-[5-(4-Cyclopropylmethylaminomethyl-phenylamino)-2H-pyrazol-3-yl-]-biphenyl-2,4-diol acetate] | – | 75 | – | – |
| Oc1cc(O)c(-c2ccc(-c3cc(Nc4ccc(CNC5CC5)cc4)n[nH]3)cc2)c(Cl)c1 [Example 8, 4′-[5-(4-Cyclopropylaminomethyl-phenylamino)-2H-pyrazol-3-yl]-biphenyl-6-chloro-2,4-diol acetate] | – | 150 | – | – |
| Oc1ccc(-c2ccc(-c3cc(Nc4cccc(CNC5CC5)c4)n[nH]3)cc2)c(O)c1 [Example 3, 4′-[5-(3-Cyclopropylaminomethyl-phenylamino)-2H-pyrazol-3-yl]-biphenyl-2,4-diol acetate] | – | 900 | – | – |
| Cc1cc(O)cc(O)c1-c1ccc(-c2cc(Nc3ccc(CNC(C)C)cc3)n[nH]2)cc1 [Example 7] | – | 380 | – | – |
| OCc1cc(Nc2cc(-c3ccc(-c4ccc(O)cc4O)cc3)[nH]n2)ccn1 [Example 13, 4′-[5-(2-Hydroxymethyl-pyridin-4-ylamino)-2H-pyrazol-3-yl]-biphenyl-2,4-diol acetate] | – | – | 0 | – |
| Oc1ccc(-c2ccc(-c3cc(Nc4cncs4)[nH]n3)cc2)c(O)c1 [Example 20, 4′-[5-(1,3-thiazol-5-ylamino)-1H-pyrazol-3-yl]-1,1′-biphenyl-2,4-diol] | – | – | 10 | – |
| OCc1ccc(Nc2cc(-c3ccc(-c4ccc(O)cc4O)cc3)[nH]n2)cn1 [Example 12, 4′-[5-(6-Hydroxymethyl-pyridin-3-ylamino)-2H-pyrazol-3-yl]-biphenyl-2,4-diol] | – | – | 5 | – |
| Oc1ccc(-c2ccc(-c3cc(Nc4ccc(CNC5CC5)cc4)n[nH]3)cc2)c(O)c1 [Example 4, 4′-[5-(4-Cyclopropylaminomethyl-phenylamino)-2H-pyrazol-3-yl]-biphenyl-2,4-diol acetate] | – | 60 | – | – |
| N#Cc1ccc(Nc2cc(-c3ccc(-c4ccc(O)cc4O)cc3)n[nH]2)cc1 [Example 2, 4-{[3-(2′,4′-Dihydroxy-1,1′-biphenyl-4-yl)-1H-pyrazol-5-yl]amino}benzonitrile] | 1 to 10 | – | – | percent abrogation of the checkpoint (CA-46 (lymphoma) cells; @ 1 μM): 1% @ 1 μM |
| Oc1ccc(-c2ccc(-c3cc(Nc4ccccn4)[nH]n3)cc2)c(O)c1 [Example 17, N-[5-(2′,4′-Dihydroxy-1,1′-biphenyl-4-yl)-1H-pyrazol-3-yl]pyridin-2-amine] | – | – | 16 | – |
| Oc1ccc(-c2ccc(-c3cc(Nc4ncccn4)n[nH]3)cc2)c(O)c1 [Example 11, N-[3-(2′,4′-dihydoxy-1,1′-biphenyl-4-yl)-1H-pyrazol-5-yl]pyrimidin-2-amine] | 1 to 10 | – | – | – |

Second part, led by results:

| Ki [1] [nM] | EC50 (CA-46 (lymphoma) cells) [nM] | SMILES | percent abrogation of the checkpoint (CA-46 (lymphoma) cells; @ 0.5 μM) [% @ 0.5 μM] | further results |
| --- | --- | --- | --- | --- |
| – | 60 | CCC(C)NCc1ccc(Nc2cc(-c3ccc(-c4ccc(O)cc4O)cc3)[nH]n2)cc1 (stereo not shown) [Example 22] | – | – |
| 1 to 10 | – | Oc1ccc(-c2ccc(-c3cc(Nc4ccncc4)[nH]n3)cc2)c(O)c1 [Example 19, 4′-[5-(pyridin-4-ylamino)-1H-pyrazol-3-yl]-1,1′-biphenyl-2,4-diol] | 14 | – |
| – | 500 | Oc1ccc(-c2ccc(-c3cc(Nc4ccccc4)n[nH]3)cc2)c(O)c1 [Example 21, 4′-(3-anilino-1H-pyrazol-5-yl)-1,1′-biphenyl-2,4-diol] | – | – |
| 1 to 10 | – | CNC(=S)c1ccc(Nc2cc(-c3ccc(-c4ccc(O)cc4O)cc3)n[nH]2)cn1 [Example 16, 5-[5-(2′,4′-Dihydroxy-biphenyl-4-yl)-2H-Pyrazol-3-ylamino]-pyridine-2-carbothioic acid methylamide] | 10 | – |
| 1 to 10 | 380 | CN(C)Cc1ccc(Nc2cc(-c3ccc(-c4ccc(O)cc4O)cc3)[nH]n2)cn1 [Example 15, 4′-[5-({6-[(dimethylamino)methyl]pyridin-3-yl}amino)-1H-pyrazol-3-yl]-1,1′-biphenyl-2,4-diol] | – | – |
| 1 to 10 | – | Oc1ccc(-c2ccc(-c3cc(Nc4ccc(CNC5CC5)nc4)n[nH]3)cc2)c(O)c1 [Example 24, 4′-[5-({6-[(cyclopropylamino)methyl]pyridin-3-yl}amino)-1H-pyrazol-3-yl]-1,1′-biphenyl-2,4-diol] | – | percent abrogation of the checkpoint (CA-46 (lymphoma) cells; @ 1 μM): 1% @ 1 μM |
| – | 540 | Oc1ccc(-c2ccc(-c3cc(Nc4cccnc4)[nH]n3)cc2)c(O)c1 [Example 18, N-[5-(2′,4′-Dihydroxy-1,1′-biphenyl-4-yl)-1H-pyrazol-3-yl]pyridin-3-amine] | – | – |
| 1 to 10 | 160 | Oc1ccc(-c2ccc(-c3cc(Nc4ccc(CNC5CCCC5)nc4)n[nH]3)cc2)c(O)c1 [Example 14, 4′-[5-({6-[(cyclopentylamino)methyl]pyridin-3-yl}amino)-1H-pyrazol-3-yl]-1,1′-biphenyl-2,4-diol] | – | – |
| – | 560 | CCNCc1ccc(Nc2cc(-c3ccc(-c4ccc(O)cc4O)cc3)[nH]n2)cn1 [Example 26, -[5-({6-[(ethylamino)methyl]pyridin-3-yl}amino)-1H-pyrazol-3-yl]-1,1′-biphenyl-2,4-diol] | – | – |
| – | 560 | CC(C)NCc1ccc(Nc2cc(-c3ccc(-c4ccc(O)cc4O)cc3)n[nH]2)cn1 [Example 25, 4′-[5-({6-[(isopropylamino)methyl]pyridin-3-yl}amino)-1H-pyrazol-3-yl]-1,1′-biphenyl-2,4-diol] | – | – |
